{
  "source": "paper PMC7224190",
  "about": "“Pharmacological inhibition of PRMT7 links arginine monomethylation to the cellular stress response” (Nature Communications, 2020)",
  "experiment_in_all_cases": "biochemical",
  "design_in_all_cases": "radiometric methyltransferase assay with tritiated SAM, IC50",
  "key": {"PRMT1": {"biological_target": "PRMT1 (Homo sapiens, UniProt Q99873)", "sequence (Q99873 whole entry)": "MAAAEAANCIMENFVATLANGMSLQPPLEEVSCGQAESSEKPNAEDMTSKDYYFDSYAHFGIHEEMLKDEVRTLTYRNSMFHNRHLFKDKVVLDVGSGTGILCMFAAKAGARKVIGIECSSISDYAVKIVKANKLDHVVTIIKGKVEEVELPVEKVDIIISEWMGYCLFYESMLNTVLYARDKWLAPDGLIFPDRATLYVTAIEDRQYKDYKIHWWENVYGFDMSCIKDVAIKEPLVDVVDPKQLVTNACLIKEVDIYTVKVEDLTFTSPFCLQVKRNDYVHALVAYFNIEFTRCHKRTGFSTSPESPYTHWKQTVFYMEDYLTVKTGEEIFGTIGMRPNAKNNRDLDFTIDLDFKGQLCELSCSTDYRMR", "protocol": "(§1) The methyltransferase selectivity was assessed at two compound concentrations of 1 and 10 μM by radiometric assays using tritiated-SAM. For methyltransferases: MLL1, MLL3, EZH1 (PRC2), and EZH2 (PRC2), G9a, GLP, SUV39H1, SUV39H2, SUV420H1, SUV420H2, SETD2, SETD8, SETDB1, SETD7, PRMT1, PRMT3, PRMT4, PRMT5/ MEP50 complex, PRMT6, PRMT7, PRMT8, PRMT9, PRDM9, SMYD2, SMYD3, DNMT1, and BCDIN3D the incorporation of a tritium-labeled methyl group into biotinylated substrate was monitored using scintillation proximity assay (SPA). Briefly, a 10 μL reaction containing ^3H-SAM and substrate at concentrations close to the apparent Km values for each enzyme (balanced conditions) was prepared. The reactions were quenched with 10 μL of 7.5 M guanidine hydrochloride; 180 μL of 20 mM Tris buffer (pH 8.0) were added, and the mixture was transferred to a 96-well FlashPlate and incubated for 1 h. The counts per minute (CPM) was measured on a TopCount plate reader. The CPM in the absence of compound or enzyme was defined as 100% activity and background (0%), respectively, for each dataset[74]–[76]. Selectivity of SGC8158 against 342 kinases was evaluated in a kinase panel TR-FRET assay at 1 and 0.1 μM compound in duplicates as described before. Briefly, tagged kinases were incubated with compound and staurosporine-based fluorescent probe where the binding was detected using Tb conjugated anti-tag antibody energy transfer to the probe. Excitation wavelength was 337 nm and fluorescent emission signal was measured for Tb (486 nm) and fluorescent probe (BODIPY, 515 nm). Specific and non-specific binding was determined in the absence and presence of unlabeled staurosporine. Assays using biotinylated H2B (23–37) as a substrate were performed in buffer (20 mM Tris–HCl, pH 8.5, 0.01% Tween-20, and 5 mM DTT) containing 5 nM PRMT7, 1.1 µM ^3H-SAM (Cat.# NET155V250UC; Perkin Elmer; www.perkinelmer.com) and 0.3 µM H2B (23–37). The reaction mixtures were incubated for 60 min at 23 °C. To stop the enzymatic reactions, 10 µL of 7.5 M guanidine hydrochloride was added, followed by 180 µL of buffer (20 mM Tris, pH 8.0), mixed and then transferred to a 96-well FlashPlate (Cat.# SMP103; Perkin Elmer; www.perkinelmer.com). After mixing, the reaction mixtures in Flash plates were incubated for 1 h and the CPM were measured using Topcount plate reader (Perkin Elmer, www.perkinelmer.com). The CPM counts in the absence of compound for each dataset were defined as 100% activity. In the absence of the enzyme, the CPM counts in each dataset were defined as background (0%). The IC50 values were determined using GraphPad Prism 7 software. For the kinetic analysis of HSPA8 methylation by PRMT7, the assay mixture contained 20 mM Tris–HCl, pH 8.5, 0.01% Tween-20, and 5 mM dithiothreitol (DTT), 1 mM MgCl2, 1 mM ATP where indicated, 250 nM PRMT7, fixed concentration (20 µM) of SAM, various concentrations (up to 40 µM) of HSPA8; or fixed concentration (10 µM) of HSPA8 with different concentrations of SAM (up to 20 µM). […] To determine the mode of action, the experiments were performed in the presence of fixed biotinylated H2B peptide (residues 23–37) or HSPA8 substrate concentration and increasing SAM concentration or at fixed concentration of SAM and varying concentration of the substrate. Twenty µL of reaction mixtures were incubated at 23 °C for 60 min. To stop reactions, 100 µL of 10% trichloroacetic acid (TCA) was added, mixed and transferred to filter-plates (Millipore; cat.# MSFBN6B10; www.millipore.com). Plates were centrifuged at 930 × g (Allegra X-15R—Beckman Coulter, Inc.) for 2 min followed by two additional 10% TCA washes and one ethanol wash followed by centrifugation. Plates were dried and 30 µL MicroScint-O ("}, "PRMT4": {"biological_target": "T1, PRMT4 (Homo sapiens, UniProt Q86X55)", "T1 construct": "gene CARM1", "T1 sequence (Q86X55 1-608)": "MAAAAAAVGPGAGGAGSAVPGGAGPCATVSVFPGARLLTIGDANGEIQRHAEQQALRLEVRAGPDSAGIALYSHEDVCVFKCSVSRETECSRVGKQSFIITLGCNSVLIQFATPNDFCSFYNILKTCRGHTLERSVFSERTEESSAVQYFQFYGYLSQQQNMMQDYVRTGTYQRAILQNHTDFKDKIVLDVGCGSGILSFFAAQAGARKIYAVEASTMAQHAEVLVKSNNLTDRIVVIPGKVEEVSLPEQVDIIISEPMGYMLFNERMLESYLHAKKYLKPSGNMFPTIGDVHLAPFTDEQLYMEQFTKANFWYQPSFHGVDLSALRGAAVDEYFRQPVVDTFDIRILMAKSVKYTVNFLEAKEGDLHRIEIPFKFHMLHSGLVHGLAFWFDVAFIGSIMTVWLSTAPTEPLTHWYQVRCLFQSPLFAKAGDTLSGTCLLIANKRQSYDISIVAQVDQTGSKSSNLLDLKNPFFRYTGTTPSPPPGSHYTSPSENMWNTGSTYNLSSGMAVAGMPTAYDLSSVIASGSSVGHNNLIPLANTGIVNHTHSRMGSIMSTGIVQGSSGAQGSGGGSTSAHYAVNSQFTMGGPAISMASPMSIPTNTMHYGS", "protocol": "as §1"}, "PRMT3": {"biological_target": "PRMT3 (Homo sapiens, UniProt O60678)", "sequence (O60678 whole entry)": "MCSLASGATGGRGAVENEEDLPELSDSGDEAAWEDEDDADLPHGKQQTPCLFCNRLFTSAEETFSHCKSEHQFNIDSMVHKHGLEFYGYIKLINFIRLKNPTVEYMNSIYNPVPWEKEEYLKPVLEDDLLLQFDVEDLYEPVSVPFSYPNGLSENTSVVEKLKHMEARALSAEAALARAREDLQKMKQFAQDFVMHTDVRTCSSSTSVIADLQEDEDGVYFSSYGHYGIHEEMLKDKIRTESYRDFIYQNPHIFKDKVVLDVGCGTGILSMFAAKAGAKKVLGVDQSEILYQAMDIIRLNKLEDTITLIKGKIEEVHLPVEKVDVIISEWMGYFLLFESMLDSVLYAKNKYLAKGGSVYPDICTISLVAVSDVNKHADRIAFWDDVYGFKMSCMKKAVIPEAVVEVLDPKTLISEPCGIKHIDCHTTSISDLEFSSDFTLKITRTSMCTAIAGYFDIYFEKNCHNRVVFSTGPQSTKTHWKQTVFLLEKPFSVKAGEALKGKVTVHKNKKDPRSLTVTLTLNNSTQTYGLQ", "protocol": "as §1"}},
  "data": [
    {"molecule": "Nc1ncnc2c1ncn2[C@@H]1O[C@H](CSCCCNCc2cccc(-c3ccc(Cl)cc3)c2)[C@@H](O)[C@H]1O", "note": "[SGC8172]", "values": [
      {"measurement": "IC50", "setting": "PRMT1", "result": "> 5000", "unit": "nM"},
      {"measurement": "IC50", "setting": "PRMT4", "result": 3.6, "unit": "nM"},
      {"measurement": "IC50", "setting": "PRMT3", "result": 269, "unit": "nM"}
    ]}
  ]
}
